For one test, the target named is T1, IL-4 (Homo sapiens, UniProt P05112).
T1 construct: made in house
T1 sequence (P05112 25-153): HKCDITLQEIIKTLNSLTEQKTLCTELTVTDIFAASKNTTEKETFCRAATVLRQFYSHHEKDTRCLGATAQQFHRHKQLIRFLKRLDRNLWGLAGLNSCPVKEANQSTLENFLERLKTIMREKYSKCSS
Briefly: IL-4 dependent TF-1.8 cell proliferation (luciferase). The format is cell-based. The text has this:
PPS inhibited the proliferation of a human IL-4 responsive cell line. This occurs at very low doses and is not due to a toxic effect of the pentosan polysulfate because other, similarly sulfated polysaccharides, at the same concentrations of IL-4 and polysaccharide have no effect. These experiments utilize the TF-1.8 cells. TF-1.8 cells are a subclone of the TF-1 cells that have been selected for growth in IL-4 or IL-5. TF-1 cells were originally established from a bone marrow sample from a person with severe pancytopenia. These cells are dependent on IL-3 or GM-CSF for long term growth and are responsive to a variety of cytokines including IL-4, […].
TF-1.8 cells have been transfected with the firefly luciferase gene contained in the expression vector, pPGK-puromycin-luciferase (Coombe et al, 1998, supra). […] The cells are counted with a Coulter Z2 Particle Counter and Size Analyzer (Coulter Electronics, England) and routinely 2.5×10^4 cells are added to microplate wells that contain either no IL-4 (negative control) or various dilutions of IL-4. When the effect of PPS, or other sulfated polysaccharides is to be measured, the wells also contain various concentrations of these molecules. […]
The size of the sulfated xylose polysaccharides is also an important component of its anti-IL-4 activity. […] Light emissions are detected on a Victor 1420 Multi-label counter (Wallac, Turku, Finland). […]

A further test concerns the target human GM-CSF (Homo sapiens, UniProt P04141). As to the kind of experiment: GM-CSF dependent TF-1.8 cell proliferation. The settings on record: 10 μg/ml and 1 μg/ml, GM-CSF 0.025 ng/ml, FIG. 7. The format is cell-based. The procedure:
TF-1.8 cells were derived from TF-1 cells that respond to human GM-CSF (granulocyte-macrophage colony stimulating factor). TF-1.8 cells retained their responsiveness to GM-CSF. Routinely 2.5×10^4 cells are added to microplate wells that contain either no GM-CSF (negative control) or various dilutions of GM-CSF. The cells are cultured for 48 hours at 37° C. in a humidified atmosphere, after which the luciferase activity is measured by the addition of 50 μl of luciferase substrate buffer (50 mM Tris-HCl, pH 7.8, 15 mM MgSO4, 33.3 mM DTT, 0.1 mM EDTA, 0.5 mM Na-luciferin, 0.5 mM ATP, 0.25 mM lithium Co A and 0.5% v/v Triton X-100). Immediately after the addition of the luciferase buffer the plate is assayed for luciferase activity. Light emissions are detected on a Victor 1420 Multi-label counter (Wallac, Turku, Finland). A titration of GM-CSF established that these cells are dependent upon this growth factor (FIG. 6). When the effect of PPS, or other sulfated polysaccharides is to be measured, the wells also contain various concentrations of these molecules as well as the GM-CSF.

Test [1] has as its system male C57Bl/6J mice exposed to cigarette smoke. As to the kind of experiment: Mouse model of emphysema/COPD, acute cigarette smoke exposure. The class given is in vivo. The conditions noted are these: PPS inhaled 30 minutes before. The procedure:
A mouse model of emphysema was used. Acute and chronic exposure of mice to cigarette smoke lead to lung responses that in part mimic the inflammatory and structural changes observed in COPD. In this model male C57Bl/6J mice are subjected to acute and chronic smoke exposure, with normal room air being the control situation. In the acute study mice were exposed to either room air or to the smoke of five cigarettes (approximately 12 mg of tar and 0.9 mg of nicotine) for 20 minutes. In the chronic study mice were exposed to either room air or to the smoke of three cigarettes/day for 5 days/week for 6 months. The 4 groups of mice were then further divided so that mice within each group also received PPS via an inhaled route.
In the acute exposure groups of mice pentosan polysulfate was given 30 minutes before exposure to cigarette smoke. Assessment of the efficacy of the drug for mice in the acute exposure groups involved assessment of trolox equivalent anti-oxidant capacity of the bronchoalveolar lavage fluid (BALF) at the end of smoke exposure. The BALF was examined for cytokines and chemokines that are associated with an inflammatory response. The levels of these agents were determined at 4 hours after exposure and at 24 hours after cigarette smoke exposure. A range of cytokines and chemokines was measured. […] A differential cell count of the cells in the BALF was also determined.

Chain of human GM-CSF (P04141 18-144): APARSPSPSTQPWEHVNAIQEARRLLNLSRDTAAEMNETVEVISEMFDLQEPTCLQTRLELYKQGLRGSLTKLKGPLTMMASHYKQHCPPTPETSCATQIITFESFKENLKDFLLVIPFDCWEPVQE

Consider Pentosan polysulfate [PPS], for which the “Inhibition of IL-4 dependent proliferation of TF-1.8 cells (in words)” value at IL-4 (dose-response, FIG. 5) is “markedly inhibits”. For the same substance, the “Percentage Inhibition of IL-4 induced TF-1.8 cell proliferation” value on IL-4 (inhibitor 5.0 μg/ml, IL-4 2.5 ng/ml, 48 hours) came to 58%. Moreover, the “Effect on TF-1.8 cell proliferation obtained with GM-CSF” value at human GM-CSF is recorded as “no effect”. In test [1], the “Cellular infiltrate into BALF” value is “decreased” and the “Numbers of neutrophils in BALF” value was “significantly attenuated”.

Values taken from patent US20180078576A1, “SULPHATED XYLANS FOR TREATMENT OR PROPHYLAXIS OF RESPIRATORY DISEASES” (Paradigm Biopharmaceuticals Limited, priority 2007, published 2018).
